Key:
A375 melanoma cells [1] = experiment: Carbonylated proteins in cells (OxyBlot); details: A375, 150 μM CNP 4-48 h or 250 μM H2O2
A375 melanoma cells [2] = experiment: Oxidized thiol groups (sulfenic acid), western blot; details: A375, 150 μM CNP 24 h or 1 mM H2O2 2 h, vs dimedone treated controls
Caveolin-1 = Caveolin-1 expression, western blot; format: cell-based, human; details: for caveolin-1 expression after pretreatment, compared to CNP treated cells: melanoma cells pretreated with N-acetyl-L-cysteine (4 h) or apocynin (1 h), then CNP
Experimental: FIG. 6 Expression of Caveolin-1 in melanoma cells. […] H2O2 was used as a positive control and a-tubulin as a loading control. Three independent experiments were performed.

cytochrome c = experiment: Cytosolic cytochrome c, western blot; details: A375; CNP 12 and 24 h; H2O2 1 h; vs mock-treated controls
A375 melanoma cells [3] = experiment: Extracellular hydrogen peroxide (Amplex Red); format: cell-based, human; details: A375, 1 h pre-incubation with 1 mM apocynin prior to CNP; 24 and 48 h
Experimental: The Amplex Red reagent (10-acetyl-3,7-dihydroxyphenoaxine), in combination with horseradish peroxidase (HRP), can be used to detect hydrogen peroxide released from cells. H2O2-mediated oxidation of the reagent results in the fluorescent product resorufin. Subconfluent A375 tumor cells were treated with 150 μM CNP or pre-incubated with 1 mM apocynin in serumfree DMEM in 96-well plates for different time points. […] Furthermore, the generation of intracellular ROS was determined using 2?,7?-Dichlorodihydrofluorescein diacetate (H2DCF-DA), a dye that diffuses across the lipid membranes into cells and is subsequently oxidized by intracellular ROS forming the highly fluorescent DCF.

[4] = test system: human dermal fibroblasts (HDF); experiment: Intracellular ROS (DCF fluorescence), fibroblasts; details: 150 μM CNP or 5 μM doxorubicin, DCF over 90 min
A375 melanoma cells [5] = experiment: Intracellular ROS (DCF fluorescence), melanoma cells; details: A375, 5 μM doxorubicin, DCF over 90 min
caspase-3 = experiment: Caspase-3 activity assay; format: cell-based, human; details: melanoma cells, 100 nM staurosporine 24 h, positive control
Experimental: Cell pellets were suspended in cell lysis buffer and incubated on ice for 45 min. The lysate was vortexed every 15 min. After centrifugation at 11000×g for 15 min, supernatants were collected and immediately measured for protein concentration and caspase activity. Briefly, cell lysates (20 μg protein) were placed in 96-well plates and then the specific caspase substrate (Ac-DEVD-AMC for caspase-3) was added. Plates were incubated at 37° C. for 1 h and caspase activity was determined by fluorescence intensity with the excitation and emission wavelengths set at 380 nm and 440 nm, respectively.

[6] = test system: human dermal fibroblasts (HDF)
Experimental: (§1) The activity of mitochondrial dehydrogenases, as indicator of cellular viability, results in the formation of a purple formazan dye. […] The medium was removed and the cells were lysed in dimethyl sulfoxide. The formazan formation was measured at 570 nm.

[7] = test system: human endothelial cells (HMEC-1)
Experimental: as §1

## OO [H2O2, hydrogen peroxide]
A375 melanoma cells [1]
  amount of carbonylated proteins vs mock-treated cells: significantly increased
A375 melanoma cells [2]
  oxidized thiols (sulfenic acid): similarlevel
Caveolin-1; melanoma cells, CNP for 1 h, H2O2 for 1 h and 4 h
  Cav-1 expression vs mock-treated control: completely abrogated
Cytochrome c
  cytosolic cytochrome c: significant increase

## CC(=O)N[C@@H](CS)C(=O)O [N-acetyl-L-cysteine]
Caveolin-1
  caveolin-1 expression after pretreatment, compared to CNP treated cells: increased caveolin-1 expression

## COc1cc(C(C)=O)ccc1O [apocynin]
A375 melanoma cells [3]
  CNP mediated hydrogen peroxide generation after apocynin pre-incubation: downregulated
Caveolin-1
  caveolin-1 expression after pretreatment, compared to CNP treated cells: increased caveolin-1 expression

## COc1cccc2c1C(=O)c1c(O)c3c(c(O)c1C2=O)C[C@@](O)(C(=O)CO)C[C@@H]3O[C@H]1C[C@H](N)[C@H](O)[C@H](C)O1 [doxorubicin]
[4]
  intracellular ROS level: significantly increased
A375 melanoma cells [5]
  intracellular ROS level: significantly increased

## CN[C@@H]1C[C@H]2O[C@@](C)([C@@H]1OC)n1c3ccccc3c3c4c(c5c6ccccc6n2c5c31)C(=O)NC4 [staurosporine]
caspase-3
  caspase-3 activity: increased

## dextran-coated cerium oxide nanoparticles [CNP]
[6]
  cell viability: not altered
[7]
  cell viability: not altered

From patent publication US20130337070A1, “Coated Nanoparticle Therapy for Skin Cancer” (University of Central Florida Research Foundation Inc., priority 2012, published 2013)
